Legend:
[1] = test system: ambulant boys with DMD; experiment: VBP15-004 bone turnover biomarkers; type: in vivo, human; conditions: for Osteocalcin, difference vs. prednisone / Procollagen 1 N-Terminal Propeptide (P1NP), difference vs. prednisone / Type I Collagen C-Telopeptides (CTX), difference vs. prednisone: Week 24, p < 0.001
[2] = molecular target: T1, mineralocorticoid receptor (Homo sapiens, UniProt P08235); conditions: background statement; cited from earlier work
T1 sequence (P08235 1-984): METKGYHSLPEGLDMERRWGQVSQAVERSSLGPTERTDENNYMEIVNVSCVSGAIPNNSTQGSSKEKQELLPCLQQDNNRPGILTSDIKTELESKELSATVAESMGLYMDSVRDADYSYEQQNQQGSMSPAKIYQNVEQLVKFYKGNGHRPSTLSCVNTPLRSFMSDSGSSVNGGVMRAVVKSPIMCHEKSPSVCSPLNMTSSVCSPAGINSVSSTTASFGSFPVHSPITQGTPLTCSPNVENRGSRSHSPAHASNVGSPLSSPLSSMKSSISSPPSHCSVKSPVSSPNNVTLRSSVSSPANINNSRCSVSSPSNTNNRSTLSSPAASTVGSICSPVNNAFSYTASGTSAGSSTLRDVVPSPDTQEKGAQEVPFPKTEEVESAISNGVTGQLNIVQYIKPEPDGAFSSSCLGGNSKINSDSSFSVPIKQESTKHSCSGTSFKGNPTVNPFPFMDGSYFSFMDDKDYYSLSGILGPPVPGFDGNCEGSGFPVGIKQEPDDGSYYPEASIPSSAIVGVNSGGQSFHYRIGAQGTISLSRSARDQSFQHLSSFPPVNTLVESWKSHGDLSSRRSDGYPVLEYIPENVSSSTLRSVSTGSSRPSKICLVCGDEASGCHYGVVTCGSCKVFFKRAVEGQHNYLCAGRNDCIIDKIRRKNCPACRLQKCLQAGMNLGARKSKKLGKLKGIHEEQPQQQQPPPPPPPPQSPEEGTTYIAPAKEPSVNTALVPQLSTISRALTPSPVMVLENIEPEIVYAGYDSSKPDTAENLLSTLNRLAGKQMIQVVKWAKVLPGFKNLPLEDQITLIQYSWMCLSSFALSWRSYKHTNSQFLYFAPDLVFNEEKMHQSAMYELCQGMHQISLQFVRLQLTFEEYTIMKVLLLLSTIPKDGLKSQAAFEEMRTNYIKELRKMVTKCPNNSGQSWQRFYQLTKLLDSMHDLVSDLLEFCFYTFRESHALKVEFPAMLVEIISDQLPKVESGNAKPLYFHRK

[3] = test system: ambulant boys with DMD; conditions: in vivo
[4] = test system: DMD participants; experiment: Skeletal maturation by wrist x-ray, VBP15-LTE Month 24; type: in vivo, human; conditions: for Bone Age difference to Chronologic Age, mean (SD): wrist x-ray at LTE Month 24, n = 39
Excerpt: In certain embodiments, the difference between chronological age of the human patient and the bone age of the human patient is reduced. A child's bone age (also called the skeletal age) is assigned by determining which of the standard X-ray images in the atlas most closely match the appearance of the child's bones on the X-ray. A difference between a child's bone age and chronological age might indicate a growth problem. The larger the difference between the bone age of a human patient and their chronological age, the greater the growth problem or disease symptom.
In addition, 39/41 LTE participants had wrist x-ray at Month 24; the mean bone age to chronologic age difference was −1.1 (p<0.001, CI −1.5, −0.7), indicating possible skeletal maturation delay (Table 7).

[5] = test system: DMD participants; experiment: Morning serum cortisol (adrenal suppression); type: in vivo, human; conditions: 24-week trial
Description: Two tests for adrenal insufficiency were used: morning cortisol (before drug) and ACTH stimulation tests. Adrenal suppression was measured via morning serum cortisol levels at Baseline, 12-weeks, and 24-weeks. The ACTH stimulation test was measured at Baseline and 24-weeks. Morning cortisol was measured in the clinic before daily drug administration. Morning cortisol levels were similar at Baseline (˜200 nmol/L) in all groups and remained stable over the 24-week trial in the Placebo Group.

Osteocalcin, mean (SEM) change at Week 24 ([1]; Vamorolone 2.0 mg, N = 17): 8.3 (3.1) ng/ml
Procollagen 1 N-Terminal Propeptide (P1NP), mean (SEM) change at Week 24 ([1]; Vamorolone 2.0 mg, N = 17): 48 (27) ng/mL
Type I Collagen C-Telopeptides (CTX), mean (SEM) change at Week 24 ([1]; Vamorolone 2.0 mg, N = 17): 177 (52) pg/mL
Osteocalcin, difference vs. prednisone ([1]; Vamorolone 2.0 mg): 23.5 ng/mL
Procollagen 1 N-Terminal Propeptide (P1NP), difference vs. prednisone ([1]; Vamorolone 2.0 mg): 182 ng/mL
Type I Collagen C-Telopeptides (CTX), difference vs. prednisone ([1]; Vamorolone 2.0 mg): 477 pg/mL
Osteocalcin, difference vs. prednisone ([1]; Vamorolone 6.0 mg): 16.9 ng/mL
Procollagen 1 N-Terminal Propeptide (P1NP), difference vs. prednisone ([1]; Vamorolone 6.0 mg): 124 ng/mL
Type I Collagen C-Telopeptides (CTX), difference vs. prednisone ([1]; Vamorolone 6.0 mg): 390 pg/mL
clinically relevant psychiatric events, subjects [3]: no vamorolone-treated subjects
moderate/severe behavior problems, subjects ([3]; male, human, 24 weeks): 1.7%
Bone Age difference to Chronologic Age, mean (SD) [4]: −1.1 (1.2), yr
Bone Age difference to Chronologic Age, mean (SD) ([4]; listed as vamorolone): −1.1 yr
LTE Month 24 Bone Age, mean (SD) ([4]; wrist x-ray, n = 39, chronologic age 8.0 (1.0) yr): 6.8 (1.4), n = 39 yr
adrenal suppression by morning cortisol, compared with prednisone ([5]; vamorolone 2.0 mg/kg/day, p=0.002): less adrenal suppression than prednisone
Structure (SMILES): C[C@@H]1C[C@H]2[C@@H]3CCC4=CC(=O)C=C[C@]4(C)C3=CC[C@]2(C)[C@@]1(O)C(=O)CO [Vamorolone, 17α,21-dihydroxy-16α-methylpregna-1,4,9(11)-triene-3,20-dione]
activity at the mineralocorticoid receptor [2]: potent antagonist
adrenal suppression by morning cortisol, compared with prednisone ([5]; vamorolone 6.0 mg/kg/day): not significantly different from prednisone

Source: patent publication US20240226117A1, “TREATMENT OF CONGENITAL ADRENAL HYPOPLASIA” (ReveraGen BioPharma, Inc., priority 2021, published 2024)
